The results in this text go back to ChEMBL document CHEMBL1201862, “PubChem BioAssay data set” (2004).

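48-hour exposure; five concentrations; linearly interpolated endpoints. GI50 marks 50% less growth.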 Active and inactive are the calls of the source. No stated cut-off is given here; in the data, active = GI50 up to about 1.1 µM and inactive = higher.

Some test systems named below: 786-0; A498; A549; BT-549; CCRF-CEM; DU-145; HCT-15; IGROV-1; K562; LOX IMVI; MDA-MB-435; NCI-H460; NCI/ADR-RES; PC-3; SF-268; SK-MEL-5; SN12C; SW-620; T47D; UACC-62.
What all share (assay): DTP human tumour cell line panel, 48 h

Consider `C=C1C(=O)OC2CC3(C)OC3CC/C(C)=C/C(OC(C)=O)C12` (stereo not given), for which the GI50 in the test with 786-0 is 4.6 µM (inactive); with A498, 15.8 µM (inactive); with A549 it was 17.3 µM (inactive); with BT-549 it was 9.71 µM (inactive); in the test on CCRF-CEM it was 2.12 µM (inactive); in the test on DU-145, 15.1 µM (inactive). Moreover, the GI50 in the test on HCT-15 was 5.57 µM; with IGROV-1, 17.1 µM (inactive); in the test on K562, 2.47 µM (inactive); with LOX IMVI, 5.22 µM (inactive); with MDA-MB-435, 12.6 µM (inactive); in the test with NCI-H460, 15.4 µM (inactive). Besides, the GI50 with NCI/ADR-RES was 11.3 µM (inactive); in the test on PC-3, 13.2 µM (inactive); in the test on SF-268, 17 µM (inactive); in the test on SK-MEL-5 it was 8.02 µM (inactive); in the test with SN12C, 11.5 µM (inactive); in the test on SW-620, 1.72 µM (inactive). Moreover, the GI50 is 3.76 µM (inactive) in the test with T47D and 9.89 µM (inactive) in the test with UACC-62.

What is called GI50 is the concentration at which growth is held to half of that of the control.
